Data taken from patent US20250017937A1, “MGLU2/3 ANTAGONISTS FOR THE TREATMENT OF INTELLECTUAL DISABILITIES” (Hoffmann-La Roche Inc., priority 2014, published 2025).

Test system: Shank3 KO mice
Assay: Water maze cognition experiment (acquisition and reversal learning) in Shank3 KO mice
Assay type: in vivo, mouse
Details: female SHANK3-KO mice
Description: Example 1: Cognition experiment in Shank3 KO mice an animal model of ASD with reported impairment in cognition
11-12 female wild-type and Shank3 KO mice on C57B16/J background were from F. Hoffmann La Roche breeding facilities, and were 10 weeks old at the beginning of the study. 20male Nlgn3 knockout rats and 20 littermate wild-type controls (background: Sprague Dawley) were from F. Hoffmann La Roche breeding facilities. All rats and mice were group-housed in holding rooms at controlled temperature (20-22° C.), humidity (55-65%) and 12-h light/dark cycle (lights on 06:00 h). All animals were allowed ad libitum access to food and water. The experimental procedures used in the present investigation received prior approval from the City of Basel Cantonal Animal Protection Committee based on adherence to federal and local regulations.
II-a were synthesized at F. Hoffmann-La Roche Ltd. according to procedures known in the art^12. Both compounds were prepared as a suspension in 0.3% Tween 80 v/v 0.9% saline and administered per os by gavage using an administration volume of 5 ml/kg (rat) or 10 ml/kg (mouse). […] All doses reported in this study are expressed as free base equivalents.
On days 1-7, II-a was administered once daily per os with 10 mg/kg (WT: n=11: KO: n=12) or vehicle (WT: n=12; KO: n=12), 3 h prior to testing from day 1 of water maze until the last day of testing. The dose of II-a was reduced to 7 mg/kg on days 8-16. Water maze was conducted on days 1-12 of treatment, with 2 days for “shaping” prior to the start of drug treatment. The grooming/digging test was conducted on days 15-16. […]
Data analysis: The mean latency, path length, and swim speed were assessed during acquisition and reversal learning. In the probe trial, the percent time spent searching for the previous platform in each quadrant (left, platform, right, and opposite), and the number of platform crossings were measured.

Structure (SMILES): Cc1cc(-c2ccc(C(F)(F)F)cc2)cc(-c2cccc(-c3cccc(S(N)(=O)=O)c3)n2)n1 [II-a]
- latency to reach platform (mean latency during acquisition and reversal learning) (FIGS. 1 and 2, C57BL/6j background, 10 weeks old, II-a 10 mg/kg po chronic vs Veh): some improvement in latency to reach platform in KO mice only
- path length during acquisition and reversal learning (FIGS. 1 and 2, II-a 10 mg/kg po chronic vs Veh): significant block 7
- memory impairment in the KO-Veh compared to WT-Veh (water maze) (FIGS. 3 and 4, II-a 10 mg/kg po chronic, repeated measures analysis of variance): improvement
